In ChEMBL document CHEMBL5608169, “A chemical modification of a peroxisome proliferator-activated receptor pan agonist produced a shift to a new dual alpha/gamma partial agonist endowed with mitochondrial pyruvate carrier inhibition and antidiabetic properties” (Eur J Med Chem, 2024) one finds EC50, Activity and inhibition data, which are given here for eight compounds.

Active and inactive are the calls of the source. The rule behind the calls is not given here.

The target in experiment [1] is T1, Peroxisome proliferator-activated receptor alpha (Homo sapiens, UniProt Q07869).
T1 sequence (Q07869 whole entry): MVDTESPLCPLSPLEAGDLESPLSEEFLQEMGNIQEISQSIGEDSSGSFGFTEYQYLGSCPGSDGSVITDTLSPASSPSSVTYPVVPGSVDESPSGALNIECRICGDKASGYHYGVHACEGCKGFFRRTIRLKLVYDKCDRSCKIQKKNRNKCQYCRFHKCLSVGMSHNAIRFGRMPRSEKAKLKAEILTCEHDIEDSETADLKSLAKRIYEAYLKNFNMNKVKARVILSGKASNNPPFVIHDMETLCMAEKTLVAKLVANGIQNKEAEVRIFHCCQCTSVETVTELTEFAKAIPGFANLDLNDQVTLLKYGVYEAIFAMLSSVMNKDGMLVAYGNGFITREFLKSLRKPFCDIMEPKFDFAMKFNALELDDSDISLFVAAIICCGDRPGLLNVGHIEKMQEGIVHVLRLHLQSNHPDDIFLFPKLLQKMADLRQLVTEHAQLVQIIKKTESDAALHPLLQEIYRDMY
Kind of experiment: Partial agonist activity at N-terminal Gal4-fused human PPARalpha LBD transfected in human HepG2 cells assessed as receptor transactivation incubated for 20 hrs by luciferase based luminometric assay. Format: cell-based.

For experiment [2], the target named is T2, Peroxisome proliferator-activated receptor gamma (Homo sapiens, UniProt P37231).
T2 sequence (P37231 whole entry): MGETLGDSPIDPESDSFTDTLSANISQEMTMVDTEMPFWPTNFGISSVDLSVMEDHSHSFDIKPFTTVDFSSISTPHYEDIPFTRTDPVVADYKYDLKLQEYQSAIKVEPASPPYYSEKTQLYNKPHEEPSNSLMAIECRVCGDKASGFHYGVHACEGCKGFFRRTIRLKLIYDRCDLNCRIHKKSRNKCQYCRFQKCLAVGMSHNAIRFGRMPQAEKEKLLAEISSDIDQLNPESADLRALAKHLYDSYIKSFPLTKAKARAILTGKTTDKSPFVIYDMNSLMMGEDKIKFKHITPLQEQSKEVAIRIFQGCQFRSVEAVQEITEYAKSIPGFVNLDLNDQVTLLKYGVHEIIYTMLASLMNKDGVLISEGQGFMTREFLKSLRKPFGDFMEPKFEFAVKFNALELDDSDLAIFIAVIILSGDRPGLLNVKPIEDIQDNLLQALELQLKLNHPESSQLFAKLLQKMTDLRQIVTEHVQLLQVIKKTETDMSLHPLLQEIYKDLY
In words: Partial agonist activity at N-terminal Gal4-fused human PPARgamma LBD transfected in human HepG2 cells assessed as receptor transactivation incubated for 20 hrs by luciferase based luminometric assay. The format is cell-based.

The target of experiment [3] is T3, Peroxisome proliferator-activated receptor delta (Homo sapiens, UniProt Q03181).
T3 sequence (Q03181 whole entry): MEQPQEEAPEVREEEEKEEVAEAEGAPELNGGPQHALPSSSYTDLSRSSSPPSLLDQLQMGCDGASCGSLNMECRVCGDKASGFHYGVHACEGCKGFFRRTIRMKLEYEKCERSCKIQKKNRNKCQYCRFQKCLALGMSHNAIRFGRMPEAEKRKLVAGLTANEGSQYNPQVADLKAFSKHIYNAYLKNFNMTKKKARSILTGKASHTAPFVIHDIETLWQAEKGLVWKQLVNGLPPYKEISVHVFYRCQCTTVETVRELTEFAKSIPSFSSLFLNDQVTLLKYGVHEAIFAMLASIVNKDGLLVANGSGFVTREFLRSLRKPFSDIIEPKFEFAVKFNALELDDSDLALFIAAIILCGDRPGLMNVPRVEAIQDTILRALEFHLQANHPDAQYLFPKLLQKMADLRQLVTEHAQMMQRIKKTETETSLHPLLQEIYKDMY
In words: Partial agonist activity at N-terminal Gal4-fused human PPARdelta LBD transfected in human HepG2 cells assessed as receptor transactivation incubated for 20 hrs by luciferase based luminometric assay. Format: cell-based.

The subject of experiment [4] is Mus musculus. In words: Antihyperglycemic activity in STZ-induced diabetic Swiss albino mouse model assessed as triglyceride level at 30 mg/kg, po by biochemical analysis (reference value: 139.33 +/- 0.88 mg/dl). The format is functional.
Experiment [5] concerns Mus musculus. Kind of experiment: Antihyperglycemic activity in STZ-induced diabetic Swiss albino mouse model assessed as low-density lipoprotein cholesterol level at 30 mg/kg, po by biochemical analysis (reference value: 113.33 +/- 0.35 mg/dl). Format: functional.
Experiment [6] has as its system Mus musculus. Kind of experiment: Antihyperglycemic activity in STZ-induced diabetic Swiss albino mouse model assessed as high-density lipoprotein cholesterol level at 30 mg/kg, po by biochemical analysis (reference value: 43.33 +/-[…]). Format: functional.
The subject of experiment [7] is Mus musculus. Kind of experiment: Antihyperglycemic activity in STZ-induced diabetic Swiss albino mouse model assessed as very low-density lipoprotein cholesterol level at 30 mg/kg, po by biochemical analysis (reference value: 27.77 +/- 0.15 mg/dl). Format: functional.
In experiment [8] the test system is Mus musculus. In words: Antihyperglycemic activity in STZ-induced diabetic Swiss albino mouse model assessed as fasting blood glucose at 30 mg/kg, po measured after 5 days by glucose meter analysis (reference value: […] +/- 63.77 mg/dl). Format: functional. Conditions: time 5 day.
The subject of experiment [9] is Mus musculus. Kind of experiment: Antihyperglycemic activity in STZ-induced diabetic Swiss albino mouse model assessed as fasting blood glucose at 30 mg/kg, po and measured immediately by glucose meter analysis (reference value: 365 +/-54.25 mg/dl). The format is functional.
Experiment [10] has as its system Mus musculus. Kind of experiment: Antihyperglycemic activity in STZ-induced diabetic Swiss albino mouse model assessed as fasting blood glucose at 30 mg/kg, po measured after 15 days by glucose meter analysis (reference value: 452.6 +/-48.94 mg/dl). Format: functional. Conditions: time 15 day.
The test system of experiment [11] is Mus musculus. Kind of experiment: Antihyperglycemic activity in STZ-induced diabetic Swiss albino mouse model assessed as fasting blood glucose at 30 mg/kg, po measured after 10 days by glucose meter analysis (reference value: 435.2 +/-46.89 mg/dl). The format is functional. Conditions: time 10 day.
In experiment [12] the test system is Mus musculus. In words: Antihyperglycemic activity in STZ-induced diabetic Swiss albino mouse model assessed as total cholesterol level at 30 mg/kg, po by biochemical analysis (reference value: 184.33 +/- […]). The format is functional.
In experiment [13] the test system is C2C12. In words: Inhibition of mitochondrial pyruvate carrier in mouse C2C12 cells assessed as increase of extracellular acidification rate at 10 uM incubated for 24 hrs by Seahorse XF pro analyzer. Format: functional, cell-based.
In experiment [14] the test system is C2C12. In words: Inhibition of mitochondrial pyruvate carrier in mouse C2C12 cells assessed as increase in OCR/ECAR ratio at 10 uM incubated for 24 hrs by Seahorse XF pro analyzer. Format: functional, cell-based.
Experiment [15] has as its system C2C12. Kind of experiment: Inhibition of mitochondrial pyruvate carrier in mouse C2C12 cells assessed as effect on ATP production at 10 uM incubated for 24 hrs by Seahorse XF pro analyzer. The format is functional, cell-based.
A further experiment has as its system HepG2. Kind of experiment: Inhibition of lipid accumulation in oleic acid induced human HepG2 cells at 10 uM pretreated with oleic-acid for 24 hrs followed by compound addition and measured after 72 hrs by Oil Red O staining based analysis. Format: functional, cell-based.
Experiment [16] relates to C2C12. In words: Inhibition of mitochondrial pyruvate carrier in mouse C2C12 cells assessed as effect on oxygen consumption rate at 10 uM incubated for 24 hrs by Seahorse XF pro analyzer. The format is functional, cell-based.

Turning to `CC[C@@H](Oc1ccc(-c2cccc3ccccc23)cc1)C(=O)O.NC1CCCCC1`, the figures for the EC50 in experiment [1] and in experiment [2] were 1420 nM and 7300 nM, respectively.

With `C[C@H](Oc1ccc(-c2cccc3ccccc23)cc1)C(=O)O`, in experiment [1], the EC50 came out at 1800 nM.

On to `CCCc1c(OCCCOc2ccc(OCC(=O)O)cc2)ccc(C(C)=O)c1O`, for which the EC50 in [3] was determined as 1600 nM.

For the compound `CCc1ccc(CCOc2ccc(CC3SC(=O)NC3=O)cc2)nc1` (stereo not drawn) [PIOGLITAZONE], the Activity amounted to 98.33 mg/dL in the experiment with Mus musculus [4]; 20.5 mg/dL with Mus musculus [5]; 19.67 mg/dL in the experiment on Mus musculus [6]; 19.33 mg/dL in the experiment with Mus musculus [7]; 351 mg/dL in the experiment on Mus musculus [8]; 441.2 mg/dL in the experiment on Mus musculus [9]. In addition, the Activity in the experiment with Mus musculus [10] is 224.2 mg/dL; with Mus musculus [11], 248 mg/dL; with Mus musculus [12], 88.67 mg/dL.

As for `CCC(Oc1ccc(-c2cccc3ccccc23)cc1)C(=O)O` (racemic), the results for the EC50 in experiment [1] and in [2] were 460 nM and 10000 nM, respectively.

Regarding `CC[C@H](Oc1ccc(-c2cccc3ccccc23)cc1)C(=O)O.NC1CCCCC1`, the EC50 in experiment [1] was 183 nM; in experiment [2] it was 11000 nM.

Consider `CN(CCOc1ccc(CC2SC(=O)NC2=O)cc1)c1ccccn1` (stereo not drawn), for which the inhibition entry with C2C12 [13], in the experiment with C2C12 [14], with C2C12 [15] and in the experiment on C2C12 [16] was “inactive” throughout. The inhibition entry in the experiment with HepG2 was “Active”.

On to `C[C@@H](Oc1ccc(-c2cccc3ccccc23)cc1)C(=O)O`, for which the EC50 in experiment [1] is 2300 nM.

Usually EC50 stands for the concentration that produces a half-maximal response.
